Measurements reported in patent US20200375996A1, “METHOD OF TREATING NEURODEGENERATIVE DISORDERS BY RESCUING ALPHA-SYNUCLEIN TOXICITY” (D.E. Shaw Research, LLC, priority 2015, published 2020).

Assays:
[1] = tested on: K63 linkages in iPS derived human neurons; assay: K63-Ub linkages in human iPS derived neuronal cultures (immunoblot); type: cell-based; conditions: 5 μM for 12 hours, FIG. 13A
Procedure: (§1) Human HEK-293 or neuronal cells treated with the appropriate compounds, were washed twice with ice cold PBS and then 0.5 ml of Lysis buffer was added and cells were scraped off the 10 cm dish (1 ml for 15 cm).
(§2) Lysis buffer is 50 mM Tris/HCl pH 7.5, 1 mM EGTA, 1 mM EDTA, 0.5 or 1% (v/v) NP-40, 1 mM sodium orthovanadate, 50 mM NaF, 5 mM sodium pyrophosphate, 0.27 M sucrose, 10 mM sodium 2-glycerophosphate, 0.2 mM phenylmethylsulphonyl fluoride, 1 mM benzamidine, plus 100 mM iodoacetamide added fresh prior to lysis (weight powder, don't use a frozen stock solution) to inactivate deubiquitylase activities and add also pepstatin/aprotinin to inhibit proteases. Cell extracts were sonicated twice for 15 seconds each time and clarified by centrifugation at 14000 g for 15 min at 4° C. Supernatants were collected and filtered using a 0.45 uM MiniSart/Syringe. Next, protein concentrations were determined by Bradford procedure.
The avidity based K63 linkage sensor protein was based on Sims et. al, 2012. Briefly, avidity based K63 sensor Halo-fusion protein was expressed in an E. coli expression vector and covalently bound to Halo-tag beads [Magne® HaloTag® Beads, 20% Slurry; Cat #G7281]. […] After incubation, the beads were washed three times with 1 ml of Lysis buffer containing 500 mM NaCl and once with 0.5 ml of 10 mM Tris/HCl pH 8.0. […] The eluate is heated at 75° C. for 5 min and analysed by immuno-blotting using an anti-K63 linkage specific antibody (http://www.abcam.com/ubiquitin-linkage-specific-k63-epr8590-448-antibody-ab179434.html).
Pure neuronal cultures derived from human iPS cells were treated with DMSO, DES-2877, DES-4114 and #32 at 5 μM for 12 hours. […] Ubiquitylation site identification by mass spectrometry was performed as described Kim et al., (Systematic and quantitative assessment of the ubiquitin-modified proteome. Mol Cell. 2011; 44:325-340). and Sarraf et al., (Landscape of the PARKIN-dependent ubiquitylome in response to mitochondrial depolarization. Nature. 2013; 496:372-376).

[2] = tested on: Sna3-GFP; assay: Immunoblot analysis of Sna3-GFP polyubiquitination in WT and α-syn cells; type: cell-based, yeast; conditions: FIG. 11B
Procedure: (§3) Protein analysis was performed in NoTox and HiTox strains with the compound treatment at indicated concentrations. Log phase CSM/2% raffinose cultures were induced with 2% galactose for 5 hours with DMSO or the compounds. Cultures were normalized to cell density and cell pellets prepared for SDS-PAGE. Cell pellets were boiled in SDS-loading dye for 15′, centrifuged, and resolved by 4-12% SDS-PAGE. CPY western blots were performed using culture conditions as described above. An anti-Cpy antibody (Invitrogen, A6428) was used at 1:5,000. Post-ER:ER ratios were quantitated using an IRDye800 secondary antibody (Li-Cor Odyssey, Rockland Immunochemicals) and scanned with the Li-Cor Odyssey imaging system. Significance was determined using a one-way ANOVA and Tukey's test of significance. From the same gel, total protein was detected by coomassie staining. Both blots and coomassie-stained gels were scanned using the Li-Cor Odyssey imaging system and quantitated. Significance was determined using a one-way ANOVA with Tukey's test of significance.
In WT Sna3-GFP cells, log phase CSMRaf cultures were shifted to galactose for 5 hours in the presence or absence of the compounds. Cell pellets were lysed in SDS-loading dye and Sna3-GFP cleavage monitored by Western blotting with an anti-GFP antibody. […]

[3] = tested on: Carboxypeptidase Y (CPY); assay: Western blot of Carboxypeptidase Y (CPY) trafficking; type: cell-based, yeast; conditions: FIG. 11D
Procedure: as §3

[4] = tested on: WT control yeast strain; assay: Toxicity profile on WT control yeast strain (growth); type: cell-based; conditions: FIGS. 9A-9B
Procedure: Yeast Growth assays: Starting cultures for all dose-response assays were based on strains initially constructed in the lab to maintain homogeneity across experiments. All growth assays were carried out in 384 well format. Source plates were assembled in 96 well plates using multichannel pipettes to dilute rows in 1.6-fold serial dilutions of CSMGal. To these dilution series containing 2× final concentration of compound, 2×OD600 culture (in CSMGal) was dispensed with a multichannel pipette to achieve a final drug/culture mix with the desired OD600 and drug concentration. For WT yeast, the final starting OD600 was 0.01. For α-syn, the final starting OD600 was 0.02. Drug concentration ranges varied depending on efficacy, growth inhibition, and solubility in media. […] Plates were then read with a Tecan Saphire plate reader at OD600.
Raw OD600 values were transformed to “Relative Growth” in WT cells or “% Maximum Rescue” in α-syn experiments. […] All experimental data points were then calculated by (OD600Exp−OD600untreated/(OD600Max−OD600untreated)×100 to obtain rescue relative to maximum rescue observed. Dose-response curves were generated by nonlinear regression analysis using Prism Graphpad v. 6.0. In cases where the compounds began inhibiting growth, only points up to the maximum were used to fit the curve. Above that, points were directly connected and are always presented as dotted lines.

[5] = tested on: K63 linkages in human HEK-293 cells; assay: Ubiquitin chain linkages in HEK-293 cells; type: cell-based; conditions: 5 μM for 12 hours, FIG. 13B
Procedure: as §1, §2
The avidity based K63 linkage sensor protein was based on Sims et. al, 2012. Briefly, avidity based K63 sensor Halo-fusion protein was expressed in an E. coli expression vector and covalently bound to Halo-tag beads [Magne® HaloTag® Beads, 20% Slurry; Cat #G7281]. […] The eluate is heated at 75° C. for 5 min and analysed by immuno-blotting using an anti-K63 linkage specific antibody (http://www.abcam.com/ubiquitin-linkage-specific-k63-epr8590-448-antibody-ab179434.html). […]

[6] = tested on: aSyn-expressing yeast cells; assay: Morphological analysis of aSyn-expressing yeast cells; type: cell-based; conditions: 10 uM, galactose induction five hours, FIG. 10
Procedure: Raffinose cultures of α-syn expressing yeast cells were grown up to the logarithmic phase in raffinose. Cultures were induced with galactose for five hours in the presence or absence of the indication concentration of the compounds. In the present example, the identified compounds were present at a concentration of 10 uM. Cells were centrifuged, media discarded, and then fixed with 4% paraformaldehyde in 1×PBS for 1 hr. The fixed culture was centrifuged, and the pellet resuspended in 0.4% paraformaldehyde in 1×PBS and kept at 4° C.

[7] = tested on: α-synuclein-expressing yeast; assay: α-synuclein toxicity rescue in yeast (growth, OD600); type: cell-based; conditions: FIGS. 8A-8B
Procedure: Yeast Strains and culturing: Yeast strains expressing alpha-synuclein have been described in Cooper at. al, 2006. (Cooper A A, et al. Alpha-synuclein blocks ER-Golgi traffic and Rab1 rescues neuron loss in Parkinson's models. Science. 2006 Jul. 21; 313:324) Strains express multiple copies of alpha-synculein for galactose-inducible expression. […] Yeast were cultured in complete synthetic media (CSM) and an appropriate dropout (lacking histidine or uracil) to maintain plasmids if required. For galactose-induction experiments, overnight cultures were grown in CSM/2% glucose to saturation and diluted 1:20 into CSM/2% raffinose for ˜2 generations. Cultures were then diluted into CSM/2% galactose at an optimum OD600 for the experiment (see ‘Growth assays’).
Yeast Growth assays: Starting cultures for all dose-response assays were based on strains initially constructed in the lab to maintain homogeneity across experiments. All growth assays were carried out in 384 well format. Source plates were assembled in 96 well plates using multichannel pipettes to dilute rows in 1.6-fold serial dilutions of CSMGal. To these dilution series containing 2× final concentration of compound, 2×OD600 culture (in CSMGal) was dispensed with a multichannel pipette to achieve a final drug/culture mix with the desired OD600 and drug concentration. For WT yeast, the final starting OD600 was 0.01. For α-syn, the final starting OD600 was 0.02. Drug concentration ranges varied depending on efficacy, growth inhibition, and solubility in media. A Tecan EvoFreedom liquid handling robot was then used to transfer culture from 96 to 384 well format with each well being represented four times. Final well volume was 35 μL. Plates were then incubated in humidified containers at 30° C. for either 24 or 40 hours. Plates were then read with a Tecan Saphire plate reader at OD600.
Raw OD600 values were transformed to “Relative Growth” in WT cells or “% Maximum Rescue” in α-syn experiments. In WT cells, the well background was subtracted and all values were then normalized to 100% for the untreated condition. In α-syn rescue experiments, the well background was subtracted and the maximum rescue in the particular experiment was normalized to 100%.

With COc1cc(Cl)cc(/C=N/Nc2nc(Nc3ccc(C)cc3Br)nc(N3CCOCC3)n2)c1O [DES-4114] the “K63 linkages in iPS derived human neurons” value [1] was “modest increase”, the “polyubiquitinated Sna3-GFP” value [2] was “increase” and the “accumulation of CPY trafficking intermediates en route to the vacuole” value [3] was “increase”. For the same compound, the “toxicity on WT control yeast strain (in words)” value [4] was “least toxic among active analogs”, the “K63 linkages in human HEK-293 cells” value [5] was “modest increase” and the “morphology: vesicular intermediates in yeast cells” value [6] was “accumulation of vesicular intermediates”. The “rescue of aSyn toxicity in yeast (in words)” value [7] was “most effective”.
